Our source for the % of control and % of inhibition values is ChEMBL document CHEMBL5465560, “Selectivity Literature for EUbOPEN Chemogenomic Library” (2024).

In experiment [1] the target is Macrophage colony-stimulating factor 1 receptor (Homo sapiens) (UniProt P07333). Nature of the experiment: Selectivity interaction (Kinase panel (Z-LYTE Assay)) EUB0001632a CSF1R. The note with it: at 10 µM.
For experiment [2], the target named is Mitogen-activated protein kinase kinase kinase 14 (Homo sapiens) (UniProt Q99558). In words: Selectivity interaction (LanthaScreen Eu Kinase Binding Assay) EUB0001632a MAP3K14. The conditions noted are these: at 10 µM.
Chain of Mitogen-activated protein kinase kinase kinase 14 (Homo sapiens) (Q99558 whole entry, looked up): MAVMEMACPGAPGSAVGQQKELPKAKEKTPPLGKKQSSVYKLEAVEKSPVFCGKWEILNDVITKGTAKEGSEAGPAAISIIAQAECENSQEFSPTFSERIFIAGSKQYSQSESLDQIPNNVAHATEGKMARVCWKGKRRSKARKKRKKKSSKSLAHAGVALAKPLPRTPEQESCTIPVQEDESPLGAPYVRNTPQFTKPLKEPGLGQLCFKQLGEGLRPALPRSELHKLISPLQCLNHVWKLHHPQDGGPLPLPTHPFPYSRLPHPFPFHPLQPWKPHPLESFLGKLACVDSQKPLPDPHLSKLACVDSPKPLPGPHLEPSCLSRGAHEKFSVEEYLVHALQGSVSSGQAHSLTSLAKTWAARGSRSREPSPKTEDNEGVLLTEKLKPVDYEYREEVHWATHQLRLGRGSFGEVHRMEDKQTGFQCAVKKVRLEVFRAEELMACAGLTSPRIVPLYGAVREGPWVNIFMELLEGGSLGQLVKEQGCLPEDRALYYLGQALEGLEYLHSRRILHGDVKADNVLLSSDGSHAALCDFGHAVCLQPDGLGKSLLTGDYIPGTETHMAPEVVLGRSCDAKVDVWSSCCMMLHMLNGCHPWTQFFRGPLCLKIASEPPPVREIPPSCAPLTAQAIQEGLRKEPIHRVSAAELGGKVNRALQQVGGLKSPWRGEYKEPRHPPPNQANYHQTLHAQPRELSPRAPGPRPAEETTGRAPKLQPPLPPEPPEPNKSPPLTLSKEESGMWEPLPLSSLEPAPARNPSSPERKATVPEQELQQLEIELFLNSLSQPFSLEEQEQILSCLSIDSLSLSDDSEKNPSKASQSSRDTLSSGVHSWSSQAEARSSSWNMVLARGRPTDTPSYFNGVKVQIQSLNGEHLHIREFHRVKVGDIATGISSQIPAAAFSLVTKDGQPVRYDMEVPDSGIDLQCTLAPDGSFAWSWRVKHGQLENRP
Experiment [3] addresses Myosin-IIIa (Homo sapiens) (UniProt Q8NEV4). The conditions noted are these: at 10 µM.
Experiment [4] concerns the target T1, Serine/threonine-protein kinase RIO1 (Homo sapiens) (UniProt Q9BRS2).
T1 sequence (whole entry): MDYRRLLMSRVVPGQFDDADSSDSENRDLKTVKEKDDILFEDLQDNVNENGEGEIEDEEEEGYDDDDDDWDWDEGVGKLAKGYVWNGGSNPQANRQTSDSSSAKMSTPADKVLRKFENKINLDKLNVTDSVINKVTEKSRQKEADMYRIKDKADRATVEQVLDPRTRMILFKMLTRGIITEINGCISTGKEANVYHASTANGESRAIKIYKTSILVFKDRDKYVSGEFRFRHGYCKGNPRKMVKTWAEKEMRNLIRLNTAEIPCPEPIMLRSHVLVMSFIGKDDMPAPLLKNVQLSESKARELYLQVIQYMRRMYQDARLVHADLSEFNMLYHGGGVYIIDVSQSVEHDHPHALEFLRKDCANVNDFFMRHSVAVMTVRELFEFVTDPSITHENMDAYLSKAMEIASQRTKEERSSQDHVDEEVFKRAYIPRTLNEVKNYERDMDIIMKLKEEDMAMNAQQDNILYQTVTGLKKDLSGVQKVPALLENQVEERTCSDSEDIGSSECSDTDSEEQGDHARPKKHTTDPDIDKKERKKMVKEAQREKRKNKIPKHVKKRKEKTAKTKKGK
In words: Selectivity interaction (KinomeScan (DiscoverX)) EUB0000666a RIOK1. The conditions noted are these: at 10 µM.

In experiment [5] the target is T2, Mitogen-activated protein kinase kinase kinase 2 (Homo sapiens) (UniProt Q9Y2U5).
T2 sequence (whole entry): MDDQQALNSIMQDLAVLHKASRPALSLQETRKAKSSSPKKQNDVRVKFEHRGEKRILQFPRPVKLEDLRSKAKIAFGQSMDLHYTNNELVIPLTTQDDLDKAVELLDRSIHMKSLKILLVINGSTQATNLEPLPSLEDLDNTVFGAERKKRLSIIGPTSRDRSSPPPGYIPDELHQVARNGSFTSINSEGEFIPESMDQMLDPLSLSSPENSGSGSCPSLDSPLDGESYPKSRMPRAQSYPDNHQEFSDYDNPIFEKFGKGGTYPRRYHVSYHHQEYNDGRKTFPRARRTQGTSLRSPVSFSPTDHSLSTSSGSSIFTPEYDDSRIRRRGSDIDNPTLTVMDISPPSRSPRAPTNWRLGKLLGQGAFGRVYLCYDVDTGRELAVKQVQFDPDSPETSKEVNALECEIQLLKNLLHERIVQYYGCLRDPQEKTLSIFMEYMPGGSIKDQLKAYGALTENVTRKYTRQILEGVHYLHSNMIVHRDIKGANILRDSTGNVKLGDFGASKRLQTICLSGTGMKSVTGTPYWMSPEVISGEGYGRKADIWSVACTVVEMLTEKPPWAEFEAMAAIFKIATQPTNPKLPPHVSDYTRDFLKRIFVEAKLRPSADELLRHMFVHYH
Nature of the experiment: Selectivity interaction (KinomeScan (DiscoverX)) EUB0001619a MAP3K2. The conditions noted are these: at 1 µM.

Experiment [6] concerns the target T3, Serine/threonine-protein kinase TNNI3K (Homo sapiens) (UniProt Q59H18).
T3 sequence (whole entry): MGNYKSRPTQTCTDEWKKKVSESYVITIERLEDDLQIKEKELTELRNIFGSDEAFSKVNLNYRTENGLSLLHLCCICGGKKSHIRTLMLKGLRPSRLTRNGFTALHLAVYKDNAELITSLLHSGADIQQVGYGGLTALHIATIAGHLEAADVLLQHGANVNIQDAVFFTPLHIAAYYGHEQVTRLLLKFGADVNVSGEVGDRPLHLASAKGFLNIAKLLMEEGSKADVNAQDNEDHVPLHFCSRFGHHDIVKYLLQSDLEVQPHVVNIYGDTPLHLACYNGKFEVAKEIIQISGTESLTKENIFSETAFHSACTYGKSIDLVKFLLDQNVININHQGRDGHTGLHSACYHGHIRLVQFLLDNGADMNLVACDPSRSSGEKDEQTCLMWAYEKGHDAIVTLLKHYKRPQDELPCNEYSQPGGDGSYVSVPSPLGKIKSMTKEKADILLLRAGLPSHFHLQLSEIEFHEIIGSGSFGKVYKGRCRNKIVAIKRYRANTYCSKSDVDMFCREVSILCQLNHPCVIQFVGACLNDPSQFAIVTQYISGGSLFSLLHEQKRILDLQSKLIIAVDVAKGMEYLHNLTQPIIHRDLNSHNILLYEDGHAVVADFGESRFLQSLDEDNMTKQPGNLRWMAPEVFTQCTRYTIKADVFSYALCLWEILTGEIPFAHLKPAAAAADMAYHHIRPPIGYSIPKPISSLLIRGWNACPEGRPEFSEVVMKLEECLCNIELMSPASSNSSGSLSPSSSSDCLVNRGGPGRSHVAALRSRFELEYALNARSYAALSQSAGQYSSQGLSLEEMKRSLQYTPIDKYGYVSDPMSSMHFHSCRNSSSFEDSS
Nature of the experiment: Selectivity interaction (KinomeScan (DiscoverX)) EUB0001619a TNNI3K. The conditions noted are these: at 1 µM.

The target of experiment [7] is Phosphatidylinositol 4,5-bisphosphate 3-kinase catalytic subunit alpha isoform (Homo sapiens) (UniProt P42336). Nature of the experiment: Selectivity interaction (Kinase panel (Invitrogen)) EUB0000639a PIK3CA. The note with it: at 200 nM.
Chain of Phosphatidylinositol 4,5-bisphosphate 3-kinase catalytic subunit alpha isoform (Homo sapiens) (P42336 whole entry, canonical isoform): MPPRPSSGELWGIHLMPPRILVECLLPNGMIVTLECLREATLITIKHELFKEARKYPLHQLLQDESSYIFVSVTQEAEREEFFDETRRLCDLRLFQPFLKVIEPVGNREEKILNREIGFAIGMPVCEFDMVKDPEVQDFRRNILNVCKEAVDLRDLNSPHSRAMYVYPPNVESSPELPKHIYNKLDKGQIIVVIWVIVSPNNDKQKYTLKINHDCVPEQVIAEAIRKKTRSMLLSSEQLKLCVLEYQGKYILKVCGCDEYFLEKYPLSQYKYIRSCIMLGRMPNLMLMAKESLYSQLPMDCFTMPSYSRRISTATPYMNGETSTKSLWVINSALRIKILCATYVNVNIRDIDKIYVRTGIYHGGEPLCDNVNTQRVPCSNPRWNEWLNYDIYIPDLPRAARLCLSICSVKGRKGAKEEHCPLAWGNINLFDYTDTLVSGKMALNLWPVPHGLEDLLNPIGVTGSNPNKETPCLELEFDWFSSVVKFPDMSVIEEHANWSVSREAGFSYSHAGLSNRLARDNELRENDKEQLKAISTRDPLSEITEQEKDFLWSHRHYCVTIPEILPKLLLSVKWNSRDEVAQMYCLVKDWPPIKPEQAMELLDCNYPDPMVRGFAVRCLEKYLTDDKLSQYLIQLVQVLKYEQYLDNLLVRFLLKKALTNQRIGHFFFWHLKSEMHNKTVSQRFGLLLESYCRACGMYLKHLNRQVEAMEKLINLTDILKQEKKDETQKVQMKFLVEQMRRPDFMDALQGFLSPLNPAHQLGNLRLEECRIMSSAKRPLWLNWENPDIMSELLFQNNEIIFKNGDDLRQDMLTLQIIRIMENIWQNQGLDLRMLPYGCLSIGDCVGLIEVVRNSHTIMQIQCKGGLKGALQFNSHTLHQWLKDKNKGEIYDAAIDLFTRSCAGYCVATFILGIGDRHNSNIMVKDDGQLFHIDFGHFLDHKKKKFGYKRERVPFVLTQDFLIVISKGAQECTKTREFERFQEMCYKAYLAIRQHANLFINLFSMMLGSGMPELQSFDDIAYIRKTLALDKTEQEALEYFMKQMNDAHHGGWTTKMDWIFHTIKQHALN
In experiment [8] the target is RAC-alpha serine/threonine-protein kinase (Homo sapiens, UniProt P31749). Nature of the experiment: Selectivity interaction (KinomeScan (DiscoverX)) EUB0000092b AKT1. The conditions noted are these: at 10 µM.
Chain of RAC-alpha serine/threonine-protein kinase (P31749 whole entry): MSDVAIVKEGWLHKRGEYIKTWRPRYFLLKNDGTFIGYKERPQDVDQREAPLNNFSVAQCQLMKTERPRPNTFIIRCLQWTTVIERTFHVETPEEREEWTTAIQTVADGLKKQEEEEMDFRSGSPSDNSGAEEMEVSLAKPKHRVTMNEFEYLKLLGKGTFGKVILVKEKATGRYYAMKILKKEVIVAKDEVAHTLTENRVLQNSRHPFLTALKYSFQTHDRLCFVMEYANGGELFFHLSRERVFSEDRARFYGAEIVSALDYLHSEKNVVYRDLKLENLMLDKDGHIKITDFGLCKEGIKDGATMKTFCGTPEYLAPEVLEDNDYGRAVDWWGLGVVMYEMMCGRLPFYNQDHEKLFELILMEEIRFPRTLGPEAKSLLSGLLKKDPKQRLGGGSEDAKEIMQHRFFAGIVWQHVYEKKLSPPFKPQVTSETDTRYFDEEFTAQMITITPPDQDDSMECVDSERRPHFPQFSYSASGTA
The target in experiment [9] is T4, TGF-beta receptor type-1 (Homo sapiens) (UniProt P36897).
T4 sequence (whole entry): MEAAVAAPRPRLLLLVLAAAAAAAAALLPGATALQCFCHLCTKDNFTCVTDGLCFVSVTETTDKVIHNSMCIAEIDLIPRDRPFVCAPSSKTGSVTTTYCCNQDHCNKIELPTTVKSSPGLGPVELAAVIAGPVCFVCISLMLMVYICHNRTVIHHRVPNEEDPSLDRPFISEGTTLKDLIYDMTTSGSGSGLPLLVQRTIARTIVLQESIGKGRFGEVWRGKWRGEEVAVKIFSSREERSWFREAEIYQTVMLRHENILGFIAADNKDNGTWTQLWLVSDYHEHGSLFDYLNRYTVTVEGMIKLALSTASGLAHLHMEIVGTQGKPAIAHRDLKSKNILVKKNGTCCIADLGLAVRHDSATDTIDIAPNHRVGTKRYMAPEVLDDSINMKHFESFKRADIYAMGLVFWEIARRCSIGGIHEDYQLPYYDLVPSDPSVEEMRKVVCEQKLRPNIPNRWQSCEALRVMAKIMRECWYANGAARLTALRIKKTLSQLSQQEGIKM
In words: Selectivity interaction (KinomeScan (DiscoverX)) EUB0000045b TGFBR1.

Chain of Macrophage colony-stimulating factor 1 receptor (Homo sapiens) (P07333 whole entry): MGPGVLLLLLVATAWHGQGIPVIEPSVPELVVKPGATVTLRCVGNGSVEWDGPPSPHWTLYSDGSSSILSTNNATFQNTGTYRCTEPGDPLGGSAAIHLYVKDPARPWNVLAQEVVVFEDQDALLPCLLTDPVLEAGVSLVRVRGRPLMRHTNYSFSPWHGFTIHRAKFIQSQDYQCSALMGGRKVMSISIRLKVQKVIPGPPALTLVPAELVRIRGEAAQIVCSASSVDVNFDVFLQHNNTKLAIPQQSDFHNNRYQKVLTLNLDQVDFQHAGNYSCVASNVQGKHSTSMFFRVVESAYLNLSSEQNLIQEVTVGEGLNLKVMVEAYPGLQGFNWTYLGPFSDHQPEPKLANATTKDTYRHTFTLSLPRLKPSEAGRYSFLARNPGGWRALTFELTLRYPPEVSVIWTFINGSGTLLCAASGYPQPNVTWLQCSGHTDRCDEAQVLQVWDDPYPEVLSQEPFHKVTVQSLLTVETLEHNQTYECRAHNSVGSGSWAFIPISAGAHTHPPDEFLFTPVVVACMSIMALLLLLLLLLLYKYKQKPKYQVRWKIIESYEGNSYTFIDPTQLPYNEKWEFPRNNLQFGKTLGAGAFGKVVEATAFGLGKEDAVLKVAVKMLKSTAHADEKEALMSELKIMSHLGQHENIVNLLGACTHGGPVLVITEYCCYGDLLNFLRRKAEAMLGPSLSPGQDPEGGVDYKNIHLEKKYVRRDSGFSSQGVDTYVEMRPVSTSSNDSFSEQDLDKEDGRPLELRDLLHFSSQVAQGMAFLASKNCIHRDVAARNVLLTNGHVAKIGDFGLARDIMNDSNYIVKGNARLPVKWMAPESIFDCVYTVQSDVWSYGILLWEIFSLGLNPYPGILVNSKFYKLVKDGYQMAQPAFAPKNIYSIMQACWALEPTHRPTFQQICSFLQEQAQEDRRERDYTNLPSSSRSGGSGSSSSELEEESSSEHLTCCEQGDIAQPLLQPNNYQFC
Chain of Myosin-IIIa (Homo sapiens) (Q8NEV4 whole entry): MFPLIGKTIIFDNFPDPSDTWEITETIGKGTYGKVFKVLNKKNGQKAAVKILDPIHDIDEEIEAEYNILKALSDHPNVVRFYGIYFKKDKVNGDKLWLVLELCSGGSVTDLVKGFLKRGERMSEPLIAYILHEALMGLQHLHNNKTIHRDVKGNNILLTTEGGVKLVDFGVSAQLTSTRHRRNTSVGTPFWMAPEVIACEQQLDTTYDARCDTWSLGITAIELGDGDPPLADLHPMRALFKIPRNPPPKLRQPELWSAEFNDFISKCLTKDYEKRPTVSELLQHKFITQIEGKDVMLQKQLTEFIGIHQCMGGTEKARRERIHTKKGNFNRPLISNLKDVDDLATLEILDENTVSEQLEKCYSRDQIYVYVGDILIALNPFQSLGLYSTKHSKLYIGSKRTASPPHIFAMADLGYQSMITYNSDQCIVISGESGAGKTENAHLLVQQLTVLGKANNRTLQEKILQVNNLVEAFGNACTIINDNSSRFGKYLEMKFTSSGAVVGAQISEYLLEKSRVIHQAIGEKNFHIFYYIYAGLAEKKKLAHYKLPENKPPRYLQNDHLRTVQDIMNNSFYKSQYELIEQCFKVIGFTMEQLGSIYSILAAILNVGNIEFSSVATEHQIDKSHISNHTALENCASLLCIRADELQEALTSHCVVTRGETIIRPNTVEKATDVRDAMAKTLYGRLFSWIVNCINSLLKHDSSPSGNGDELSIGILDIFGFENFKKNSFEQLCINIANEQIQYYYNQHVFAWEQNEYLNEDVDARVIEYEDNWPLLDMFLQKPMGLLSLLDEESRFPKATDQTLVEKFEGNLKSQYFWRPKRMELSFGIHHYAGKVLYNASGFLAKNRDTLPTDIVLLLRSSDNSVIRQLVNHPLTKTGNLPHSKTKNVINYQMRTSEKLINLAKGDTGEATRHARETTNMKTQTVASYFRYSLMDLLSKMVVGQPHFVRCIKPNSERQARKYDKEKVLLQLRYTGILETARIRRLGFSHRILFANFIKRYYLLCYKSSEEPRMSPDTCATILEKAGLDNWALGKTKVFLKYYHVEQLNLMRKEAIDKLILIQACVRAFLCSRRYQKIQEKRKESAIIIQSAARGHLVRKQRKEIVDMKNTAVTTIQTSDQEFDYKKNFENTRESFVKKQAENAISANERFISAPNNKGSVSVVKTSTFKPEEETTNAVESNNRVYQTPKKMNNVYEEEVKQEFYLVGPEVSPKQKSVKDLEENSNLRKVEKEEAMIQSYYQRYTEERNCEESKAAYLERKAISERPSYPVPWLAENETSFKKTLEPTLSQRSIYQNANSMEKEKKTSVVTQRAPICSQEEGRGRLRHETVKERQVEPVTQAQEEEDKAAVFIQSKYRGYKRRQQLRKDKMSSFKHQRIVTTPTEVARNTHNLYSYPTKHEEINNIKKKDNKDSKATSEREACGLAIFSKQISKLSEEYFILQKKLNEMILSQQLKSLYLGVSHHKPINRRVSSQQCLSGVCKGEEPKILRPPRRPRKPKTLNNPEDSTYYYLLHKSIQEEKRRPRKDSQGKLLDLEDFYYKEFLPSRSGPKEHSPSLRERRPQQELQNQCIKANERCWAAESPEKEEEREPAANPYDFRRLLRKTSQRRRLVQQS

`Cn1cc(-n2cnc3c(NCc4nc5cc(Cl)c(Cl)cc5[nH]4)nc(N4CCOCC4)nc32)cn1`: in [1], the % of control was 20%. For the same molecule, the % of inhibition in [2] was -10.4%.

For `Cc1cc([C@@H](C)Nc2ccccc2C(=O)O)c2nc(N3CCOCC3)cc(=O)n2c1` [AZD-6482], the % of control in experiment [3] was 97%.

Consider `O=C(NOC[C@H](O)CO)c1ccc(F)c(F)c1Nc1ccc(I)cc1F`, for which the % of control in [4] was found to be 95%.

In the case of `N#Cc1cccc(-c2c[nH]c3ncnc(N4CCOCC4)c23)c1`, the % of control in experiment [5] was determined as 21%; in [6], 74%.

In the case of `CC[C@@H]1[C@H](F)C(=O)N[C@@H]1COc1nccc2cc(C(N)=O)c(OC)cc12` [ZIMLOVISERTIB], in experiment [7], the % of inhibition turned out to be 5.29%.

In experiment [8], `CCC(=O)N1CCN(c2ccc(-n3c(=O)ccc4cnc5ccc(-c6cnc7ccccc7c6)cc5c43)cc2C(F)(F)F)CC1` yielded a % of control of 91%.

As to `C=CC(=O)Nc1cc(-n2c(=O)ccc3cnc4ccc(-c5ccc(NS(C)(=O)=O)cc5)cc4c32)ccc1C`, the values for the % of control in experiment [9] (at 1 µM) and in [9] (at 10 µM) were 97% and 100%, respectively.
